Measurements: PubChem BioAssay (NCI)
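Test compounds were applied to cells in 96-well plates for 48 hours at 5 doses. TGI: concentration producing complete growth inhibition.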

Tests used:
Experiment in all cases: NCI tumour cell line growth inhibition, 48 h
HCT-116 colon = tested on: HCT-116 colon
U251 CNS = tested on: U251 CNS
IGROV1 ovarian = tested on: IGROV1 ovarian
786-0 renal = tested on: 786-0 renal
SW-620 colon = tested on: SW-620 colon
HL-60(TB) leukemia = tested on: HL-60(TB) leukemia
KM12 colon = tested on: KM12 colon
OVCAR-5 ovarian = tested on: OVCAR-5 ovarian
SF-539 CNS = tested on: SF-539 CNS
MDA-N = tested on: MDA-N
NCI-H226 lung = tested on: NCI-H226 lung
SR leukemia = tested on: SR leukemia
SNB-19 CNS = tested on: SNB-19 CNS
SF-295 CNS = tested on: SF-295 CNS
CAKI-1 renal = tested on: CAKI-1 renal
UACC-257 melanoma = tested on: UACC-257 melanoma
NCI-H522 lung = tested on: NCI-H522 lung
SK-MEL-28 melanoma = tested on: SK-MEL-28 melanoma
T-47D breast = tested on: T-47D breast
SF-268 CNS = tested on: SF-268 CNS
ACHN renal = tested on: ACHN renal
A549 NSCLC = tested on: A549 NSCLC
SNB-75 CNS = tested on: SNB-75 CNS
SN12C renal = tested on: SN12C renal
PC-3 prostate = tested on: PC-3 prostate
EKVX NSCLC = tested on: EKVX NSCLC
SK-MEL-5 melanoma = tested on: SK-MEL-5 melanoma
NCI-H460 lung = tested on: NCI-H460 lung
HS 578T breast = tested on: HS 578T breast
K-562 leukemia = tested on: K-562 leukemia
SK-OV-3 ovarian = tested on: SK-OV-3 ovarian
UO-31 renal = tested on: UO-31 renal
RPMI-8226 leukemia = tested on: RPMI-8226 leukemia
HCT-15 colon = tested on: HCT-15 colon
SK-MEL-2 melanoma = tested on: SK-MEL-2 melanoma
LOX IMVI melanoma = tested on: LOX IMVI melanoma
HOP-62 NSCLC = tested on: HOP-62 NSCLC
DU-145 prostate = tested on: DU-145 prostate
A498 renal = tested on: A498 renal
OVCAR-3 ovarian = tested on: OVCAR-3 ovarian
MDA-MB-231 breast = tested on: MDA-MB-231 breast
UACC-62 melanoma = tested on: UACC-62 melanoma
COLO 205 colon = tested on: COLO 205 colon
NCI-H23 lung = tested on: NCI-H23 lung
TK-10 renal = tested on: TK-10 renal
MALME-3M melanoma = tested on: MALME-3M melanoma
OVCAR-4 ovarian = tested on: OVCAR-4 ovarian
M14 melanoma = tested on: M14 melanoma
NCI/ADR-RES ovarian = tested on: NCI/ADR-RES ovarian
MDA-MB-435 = tested on: MDA-MB-435
HCC-2998 colon = tested on: HCC-2998 colon
RXF 393 renal = tested on: RXF 393 renal
OVCAR-8 ovarian = tested on: OVCAR-8 ovarian
CCRF-CEM leukemia = tested on: CCRF-CEM leukemia
HT29 colon = tested on: HT29 colon
MOLT-4 leukemia = tested on: MOLT-4 leukemia
HOP-92 NSCLC = tested on: HOP-92 NSCLC
MCF7 breast = tested on: MCF7 breast

CC(=O)CC1(OC(=O)C2C(C=C(C)C)C2(C)C)C(=O)Nc2ccccc21 (stereo unspecified)
TGI (HCT-116 colon): > 100 µM | TGI (U251 CNS): > 100 µM | TGI (IGROV1 ovarian): > 100 µM | TGI (786-0 renal): > 100 µM | TGI (SW-620 colon): > 100 µM | TGI (HL-60(TB) leukemia): > 100 µM | TGI (KM12 colon): > 100 µM | TGI (OVCAR-5 ovarian): > 100 µM | TGI (SF-539 CNS): > 100 µM | TGI (MDA-N): > 100 µM | TGI (NCI-H226 lung): > 100 µM | TGI (SR leukemia): > 100 µM | TGI (SNB-19 CNS): > 100 µM | TGI (SF-295 CNS): > 100 µM | TGI (CAKI-1 renal): > 100 µM | TGI (UACC-257 melanoma): > 100 µM | TGI (NCI-H522 lung): > 100 µM | TGI (SK-MEL-28 melanoma): > 100 µM | TGI (T-47D breast): > 100 µM | TGI (SF-268 CNS): > 100 µM | TGI (ACHN renal): > 100 µM | TGI (A549 NSCLC): > 100 µM | TGI (SNB-75 CNS): > 100 µM | TGI (SN12C renal): > 100 µM | TGI (PC-3 prostate): > 100 µM | TGI (EKVX NSCLC): > 100 µM | TGI (SK-MEL-5 melanoma): > 100 µM | TGI (NCI-H460 lung): > 100 µM | TGI (HS 578T breast): > 100 µM | TGI (K-562 leukemia): > 100 µM | TGI (SK-OV-3 ovarian): > 100 µM | TGI (UO-31 renal): > 100 µM | TGI (RPMI-8226 leukemia): > 100 µM | TGI (HCT-15 colon): > 100 µM | TGI (SK-MEL-2 melanoma): > 100 µM | TGI (LOX IMVI melanoma): > 100 µM | TGI (HOP-62 NSCLC): > 100 µM | TGI (DU-145 prostate): > 100 µM | TGI (A498 renal): > 100 µM | TGI (OVCAR-3 ovarian): > 100 µM | TGI (MDA-MB-231 breast): > 100 µM | TGI (UACC-62 melanoma): > 100 µM | TGI (COLO 205 colon): > 100 µM | TGI (NCI-H23 lung): > 100 µM | TGI (TK-10 renal): > 100 µM | TGI (MALME-3M melanoma): > 100 µM | TGI (OVCAR-4 ovarian): > 100 µM | TGI (M14 melanoma): > 100 µM | TGI (NCI/ADR-RES ovarian): > 100 µM | TGI (MDA-MB-435): > 100 µM | TGI (HCC-2998 colon): > 100 µM | TGI (RXF 393 renal): > 100 µM | TGI (OVCAR-8 ovarian): > 100 µM | TGI (CCRF-CEM leukemia): > 100 µM | TGI (HT29 colon): > 100 µM | TGI (MOLT-4 leukemia): > 100 µM

COP(C)(=O)C1=CCN(C(=O)OCC[Si](C)(C)C)CC1 (stereo unspecified)
TGI (U251 CNS): > 100 µM | TGI (IGROV1 ovarian): > 100 µM | TGI (786-0 renal): > 100 µM | TGI (SW-620 colon): > 100 µM | TGI (HOP-92 NSCLC): > 100 µM | TGI (KM12 colon): > 100 µM | TGI (OVCAR-5 ovarian): > 100 µM | TGI (MDA-N): > 100 µM | TGI (NCI-H226 lung): > 100 µM | TGI (SNB-19 CNS): > 100 µM | TGI (SF-295 CNS): > 100 µM | TGI (CAKI-1 renal): > 100 µM | TGI (UACC-257 melanoma): > 100 µM | TGI (NCI-H522 lung): > 100 µM | TGI (SK-MEL-28 melanoma): > 100 µM | TGI (T-47D breast): > 100 µM | TGI (SF-268 CNS): > 100 µM | TGI (ACHN renal): > 100 µM | TGI (A549 NSCLC): > 100 µM | TGI (SNB-75 CNS): > 100 µM | TGI (MCF7 breast): > 100 µM | TGI (PC-3 prostate): > 100 µM | TGI (EKVX NSCLC): > 100 µM | TGI (SK-MEL-5 melanoma): > 100 µM | TGI (NCI-H460 lung): > 100 µM | TGI (HS 578T breast): > 100 µM | TGI (SK-OV-3 ovarian): > 100 µM | TGI (UO-31 renal): > 100 µM | TGI (RPMI-8226 leukemia): > 100 µM | TGI (HCT-15 colon): > 100 µM | TGI (SK-MEL-2 melanoma): > 100 µM | TGI (LOX IMVI melanoma): > 100 µM | TGI (HOP-62 NSCLC): > 100 µM | TGI (DU-145 prostate): > 100 µM | TGI (A498 renal): > 100 µM | TGI (OVCAR-3 ovarian): > 100 µM | TGI (MDA-MB-231 breast): > 100 µM | TGI (UACC-62 melanoma): > 100 µM | TGI (COLO 205 colon): > 100 µM | TGI (NCI-H23 lung): > 100 µM | TGI (TK-10 renal): > 100 µM | TGI (MALME-3M melanoma): > 100 µM | TGI (OVCAR-4 ovarian): > 100 µM | TGI (M14 melanoma): > 100 µM | TGI (NCI/ADR-RES ovarian): > 100 µM | TGI (MDA-MB-435): > 100 µM | TGI (HCC-2998 colon): > 100 µM | TGI (RXF 393 renal): > 100 µM | TGI (OVCAR-8 ovarian): > 100 µM | TGI (CCRF-CEM leukemia): > 100 µM | TGI (HT29 colon): > 100 µM

O=C(/C=C/c1ccsc1)c1ccc(Cl)cc1
TGI (HCT-116 colon): > 100 µM | TGI (U251 CNS): > 100 µM | TGI (IGROV1 ovarian): > 100 µM | TGI (786-0 renal): > 100 µM | TGI (SW-620 colon): > 100 µM | TGI (HL-60(TB) leukemia): 49.8 µM | TGI (KM12 colon): > 100 µM | TGI (OVCAR-5 ovarian): > 100 µM | TGI (SF-539 CNS): > 100 µM | TGI (MDA-N): > 100 µM | TGI (NCI-H226 lung): > 100 µM | TGI (SR leukemia): 43.7 µM | TGI (SNB-19 CNS): > 100 µM | TGI (SF-295 CNS): > 100 µM | TGI (CAKI-1 renal): > 100 µM | TGI (UACC-257 melanoma): > 100 µM | TGI (SK-MEL-28 melanoma): > 100 µM | TGI (T-47D breast): > 100 µM | TGI (SF-268 CNS): > 100 µM | TGI (ACHN renal): > 100 µM | TGI (A549 NSCLC): > 100 µM | TGI (SNB-75 CNS): > 100 µM | TGI (MCF7 breast): > 100 µM | TGI (SN12C renal): > 100 µM | TGI (PC-3 prostate): > 100 µM | TGI (EKVX NSCLC): > 100 µM | TGI (SK-MEL-5 melanoma): > 100 µM | TGI (NCI-H460 lung): > 100 µM | TGI (HS 578T breast): > 100 µM | TGI (K-562 leukemia): 95.7 µM | TGI (SK-OV-3 ovarian): > 100 µM | TGI (UO-31 renal): > 100 µM | TGI (RPMI-8226 leukemia): 64.8 µM | TGI (HCT-15 colon): > 100 µM | TGI (SK-MEL-2 melanoma): > 100 µM | TGI (LOX IMVI melanoma): 47.8 µM | TGI (HOP-62 NSCLC): > 100 µM | TGI (DU-145 prostate): > 100 µM | TGI (A498 renal): > 100 µM | TGI (MDA-MB-231 breast): > 100 µM | TGI (UACC-62 melanoma): > 100 µM | TGI (COLO 205 colon): > 100 µM | TGI (NCI-H23 lung): > 100 µM | TGI (TK-10 renal): > 100 µM | TGI (MALME-3M melanoma): 95.3 µM | TGI (OVCAR-4 ovarian): > 100 µM | TGI (M14 melanoma): > 100 µM | TGI (NCI/ADR-RES ovarian): > 100 µM | TGI (MDA-MB-435): > 100 µM | TGI (HCC-2998 colon): > 100 µM | TGI (OVCAR-8 ovarian): > 100 µM | TGI (CCRF-CEM leukemia): 53.3 µM | TGI (HT29 colon): > 100 µM | TGI (MOLT-4 leukemia): 43.7 µM
